Measured values taken from patent US10668283B2, “Brain stimulation tool configuration” (Elminda Ltd., priority 2014, dated 2020).

Assays:
Assay type in all cases: in vivo, human
ADHD subject = test: BNA pattern similarity from EEG data of ADHD subjects before and after MPH treatment
Description: The BNA patterns shown in FIGS. 6A-D are associated subject-specific BNA patterns constructed from EEG data recorded from a particular ADHD subject. The black dots in FIGS. 6A-D show the locations of the EEG electrodes. The color codes in these BNA patterns are the same as defined above. The subject-specific BNA patterns shown in FIGS. 6A-B describe the association of the ADHD subject to a group of untreated ADHD subjects, and the BNA patterns shown in FIGS. 6C-D describe the association of the ADHD subject to a group of ADHD subjects all treated with methylphenidate (MPH). The subject-specific BNA patterns shown in FIGS. 6A and 6C are based on EEG data recorded from the ADHD subject before any treatment, and subject-specific BNA patterns shown in FIGS. 6B and 6D are based on EEG data recorded from the ADHD subject following a treatment with MPH.
The baseline annotated BNA pattern constructed from the group of untreated ADHD subjects, and the baseline annotated BNA pattern constructed from the same group of subjects, but following treatment with MPH are shown in FIGS. 6E and 6F, respectively.
A BNA pattern similarity was calculated for each of the subject-specific BNA patterns shown in FIGS. 6A-D. The calculated similarity corresponding to the BNA pattern of FIG. 6A is 0.73, the calculated similarity corresponding to the BNA pattern of FIG. 6B is 0.19, the calculated similarity corresponding to the BNA pattern of FIG. 6C is 0.56, and the calculated similarity corresponding to the BNA pattern of FIG. 6D is 0.6.
The BNA patterns shown in FIGS. 7A-D were constructed from EEG data recorded from a different ADHD subject, which was also treated with MPH according to the same protocol as described above with respect to the responder subject of FIGS. 6A-D. The black dots in FIGS. 7A-D show the locations of the EEG electrodes, and the color codes in these BNA patterns is the same as defined above. Thus, the subject-specific BNA patterns shown in FIGS. 7A-B describe the association of the ADHD subject to a group of untreated ADHD subjects, and the BNA patterns shown in FIGS. 7C-D describe the association of the ADHD subject to a group of ADHD subjects all treated with methylphenidate (MPH). The subject-specific BNA patterns shown in FIGS. 7A and 7C are based on EEG data recorded from the ADHD subject before any treatment, and subject-specific BNA patterns shown in FIGS. 7B and 7D are based on EEG data recorded from the ADHD subject following a treatment with MPH.

groups of subjects = test: Group BNA patterns from EEG data recorded during a working memory test (cue/probe face matching); conditions: memorization and retrieval, versus placebo
Description: FIGS. 10A-H show group BNA patterns constructed from EEG data recorded from two groups of subjects during a working memory test. The black dots in FIGS. 10A-H show the locations of the EEG electrodes, and the color codes in these BNA patterns is the same as defined above. During the test, each subject of the group was asked to memorize an image of a human face (referred to as the “cue”). Two seconds later, the subject was again presented with an image of a human face (referred to as the “probe”) and was asked to determine whether the probe matches the cue.
The BNA patterns of the first group are shown in FIGS. 10A-D. FIGS. 10A and 10B are group BNA patterns constructed following treatment with a placebo (referred to below as placebo A), and FIGS. 10C and 10D are group BNA patterns constructed following treatment with a Scopolamine. The BNA patterns of the second group are shown in FIGS. 10E-H, where FIGS. 10E and 10F are group BNA patterns constructed following treatment with a placebo (referred to below as placebo B), and FIGS. 10G and 10H are BNA patterns constructed following treatment with a Ketamine.
The BNA pattern of FIGS. 10A, 10C, 10E and 10G were constructed from the data acquired during the time at which the cue was presented and are recognized by the present inventor as containing information pertaining to the memorization process in the brain (also known in the literature as “encoding”). The BNA patterns of FIGS. 10B, 10D, 10F and 10H were constructed from the data acquired during the time at which the probe was presented, and are recognized by the present inventor as containing information pertaining to the retrieval process in the brain. It is noted that the BNA patterns of FIGS. 10A-H describe differentiating activity networks. Thus, for example, the BNA pattern of FIG. 10A describes the brain activity during cue that most differentiated between placebo A and Scopolamine, and the BNA pattern of […] describes the brain activity during cue that most differentiated between placebo B and Ketamine.

[1] = tested on: healthy volunteer subjects; test: BNA pattern similarity from EEG data of healthy volunteers during an attention-related oddball task after scopolamine; clinical behavioral endpoint; conditions: for BNA pattern similarity to baseline BNA pattern of healthy subjects following placebo: following scopolamine
Description: FIGS. 8A-D show associated subject-specific BNA patterns constructed from EEG data recorded from two healthy volunteer subjects. The black dots in FIGS. 8A-D show the locations of the EEG electrodes, and the color codes in these BNA patterns are the same as defined above. The subject-specific BNA patterns shown in FIGS. 8A-D describe the association of the subjects to a group of healthy subjects following treatment with a placebo drug and while performing an attention task related oddball task.
FIGS. 8A and 8C are subject-specific BNA patterns constructed from EEG data collected from a first subject (FIG. 8A) and a second subject (FIG. 8C) following treatment with a placebo, and FIGS. 8B and 8D are subject-specific BNA patterns constructed from EEG data collected from the first subject (FIG. 8B) and the second subject (FIG. 8D) following treatment with a scopolamine drug. Scopolamine is an anticholinergic drug with inhibitory effect on M2-cholinergic receptors of excited type. It has an inhibitory effect on the cerebral cortex, typically inducing slight-anesthetic effect.
A BNA pattern similarity was calculated for each of the subject-specific BNA patterns shown in FIGS. 8A-D. The calculated similarities are 0.937, 0.079, 1.0 and 0.94, respectively. It is recognized by the present inventors that these similarity values indicate that the responsivity to scopolamine is high for the first subject (FIGS. 8A and 8B) and low for the second subject (FIGS. 8C and 8D).

healthy volunteers = test: Scopolamine induced cognitive impairment model: ΔBNA scores in Auditory Oddball Task against SEM of the normative database; conditions: scopolamine 0.4 mg, Novel stimulus, connectivity score; only 2 patients receiving placebo
Description: The task chosen for this study was the Auditory Oddball Task, but other tasks are not excluded from the scope of the present invention. FIG. 21 is a schematic representation of an Auditory Oddball Task used in this study. The task included 600 repetitive 1000 ms auditory stimulations of which 80% were 2000 Hz stimuli (Frequent—blue circles), 10% were 1000 Hz stimuli requiring a motor response (Target—red circles) and 10% were rare non-targets composed of various sounds (Novel—yellow star). The stimuli were separated by 1500 ms intervals. The sound was delivered through a headset at a sound pressure level of 70 dB.
A pharmacological model study included 13 healthy volunteers of both genders, Aged 18-45. The volunteers were subjected to 3 Consecutive BNA sessions were, 1 week apart. A first session was used as a baseline, one of the two other sessions included administration of scopolamine (0.4 mg), and the other of the two other sessions included administration of placebo. The second and third sessions were at random order, double blind. ΔBNA Score values (Baseline—Placebo and Baseline—Drug) were evaluated against SEM values.
Shown are Plots of the ΔBNA (Baseline—treatment) connectivity score values for the Novel response. Each symbol is a single subject, tested once following Drug and once following Placebo. […]

COC(=O)C(c1ccccc1)C1CCCCN1 (stereo not drawn) [MPH, methylphenidate]
BNA pattern similarity to the group of untreated ADHD subjects (ADHD subject; different ADHD subject (FIG. 7B), following treatment with MPH, 0 before treatment): 0 | BNA pattern similarity to the group of ADHD subjects treated with MPH (ADHD subject; different ADHD subject (FIG. 7D), following treatment with MPH, 0.06 before treatment): 0 | responsiveness of the subject to the treatment as indicated by similarity values (ADHD subject; different ADHD subject (FIGS. 7A-D)): not responsive to the treatment | BNA pattern similarity to the baseline BNA pattern for untreated ADHD group (ADHD subject; first ADHD subject (FIG. 6B), following single dose treatment with MPH, 0.73 before treatment): 0.19 | BNA pattern similarity to the baseline BNA pattern for the treated ADHD group (ADHD subject; first ADHD subject (FIG. 6D), following single dose treatment with MPH, 0.56 before treatment): 0.6 | responsiveness of the subject to the treatment as indicated by similarity values (ADHD subject; first ADHD subject (FIGS. 6A-D)): responsive to the treatment

CNC1(c2ccccc2Cl)CCCCC1=O (stereo not drawn) [ketamine]
effect on central and frontal activation in group BNA pattern (groups of subjects): increased central and frontal activation | effect on fronto-parietal part / connectivity of group BNA pattern (groups of subjects): No significant change in the fronto-parietal part of the BNA pattern | effect on right lateralization in group BNA pattern (groups of subjects): decreased right lateralization

CN1[C@@H]2C[C@@H](OC(=O)[C@H](CO)c3ccccc3)C[C@H]1[C@@H]1O[C@@H]12 [scopolamine]
BNA pattern similarity to baseline BNA pattern of healthy subjects following placebo ([1]; first subject (FIG. 8B), 0.937 following placebo): 0.079 | responsivity to scopolamine as indicated by similarity values ([1]; first subject (FIGS. 8A and 8B)): high | decrease in behavioral endpoint (clinical observations) ([1]; first subject, following treatment with scopolamine): 70% | BNA pattern similarity to baseline BNA pattern of healthy subjects following placebo ([1]; second subject (FIG. 8D), 1.0 following placebo): 0.94 | responsivity to scopolamine as indicated by similarity values ([1]; second subject (FIGS. 8C and 8D)): low | change in behavioral endpoint (clinical observations) ([1]; second subject, following treatment with scopolamine): no change in behavioral endpoint | effect on central and frontal activation in group BNA pattern (groups of subjects): extensive compensatory central and frontal activation | effect on fronto-parietal part / connectivity of group BNA pattern (groups of subjects): low connectivity between frontal and parietal regions | patients with post-treatment BNA scores more than 2 SEM lower than the baseline score (healthy volunteers): Eight out of 13
